Results: US8592468B2, “Bacterial thioredoxin reductase inhibitors and methods for use thereof” (Thioredoxin Systems AB, priority 2006, dated 2013)
Converted amounts (≈) assume the structure as drawn.

What was measured:
[1] = tested on: Helicobacter pylori; experiment: Bactericidal effects of ebselen on Helicobacter pylori (MBC); assay type: cell-based; design: key to Sensitivity to ebselen: S: sensitive; R: resistant
Method: The bacteria were cultured in 96-well microtiter plates with a microaerophilic environment at 37° C. for 4 days. The whole amount of the wells was then plated on GC agar plates containing different concentrations of ebselen. Ebselen was diluted in a two-fold series (0.39-200 μg/ml), the minimal bactericidal concentration (MBC) was determined by the first concentration with a total bactericidal effect.

[2] = molecular target: E. coli TrxR (Escherichia coli (strain K12), UniProt P0A9P4); experiment: Inhibition of E. coli TrxR reduction of Trx, DTNB coupled assay (Lineweaver-Burk); assay type: biochemical
E. coli TrxR, sequence (P0A9P4 2-321 limits assumed): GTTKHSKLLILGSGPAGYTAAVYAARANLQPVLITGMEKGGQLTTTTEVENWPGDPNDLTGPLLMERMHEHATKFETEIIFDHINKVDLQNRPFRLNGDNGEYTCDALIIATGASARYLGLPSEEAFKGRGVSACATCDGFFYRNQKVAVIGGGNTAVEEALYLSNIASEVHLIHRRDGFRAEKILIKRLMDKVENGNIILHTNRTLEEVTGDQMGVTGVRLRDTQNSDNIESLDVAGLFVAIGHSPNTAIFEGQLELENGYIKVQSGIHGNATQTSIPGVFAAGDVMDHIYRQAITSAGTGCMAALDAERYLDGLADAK
Method: FIGS. 4A and 4B show the effect of ebselen (FIG. 4A) and ebselen diselenide (FIG. 4B) on DTNB reduction by E. coli thioredoxin and thioredoxin reductase. Assays were contained in 0.50 ml semi-microcuvettes containing 0.24 mM NADPH, 1 mM DTNB in 0.10 M Tris-Cl, pH 8.0, 1 mM EDTA. The increase in A412 was measured against a blank using 10 nM E. coli TrxR in the presence of 2 μM (grey filled points), 5 μM (white filled points), 10 μM (black filled points) E. coli Trx with 0 (squares), 0.5 μM (triangles), 1 μM (rhombus), 2 μM (rounds) of ebselen or ebselen diselenide.
(A) Ebselen concentrations were 0 μM (▴), 0.5 μM (∀), 1 μM (▪) and 2 μM (Δ). […] (B) Ebselen concentrations were 0 μM (▴), 1 μM (▪) and 2 μM (∀).
The activity of the enzyme was determined at room temperature using an Ultrospec 3000 UV/Visual spectrophotometer (Amersham Biosciences). […] The enzyme-catalysed reactions were followed at 340 nm using the standard calculation of NADPH oxidation to NADP^+ with a molar extinction coefficient of 6200 M^−1 cm^−1 (32, 34). The conditions of the assay of bacterial thioredoxin reductase have been described (32, 34) using either 1 mM DTNB or 160 μM insulin as a substrate. In DTNB coupled assays, 240 μM NADPH and 1 mM DTNB were used in the TE buffer and formation of the TNB was measured at 412 nm, where TNB has an extinction coefficient of 13600 M^−1 cm^−1.
Further we examined the effect of ebselen in the reduction of disulphide by E. coli Trx and TrxR using both DTNB and insulin as substrates. […] FIGS. 4A and 4B show the effect of ebselen (4A) and ebselen diselenide (4B) on DTNB reduction by E. coli thioredoxin and thioredoxin reductase. Assays in semi-microcuvettes with 0.5 ml solution contained 0.24 mM NADPH, 1 mM DTNB in 50 mM Tris-Cl/1 mM EDTA, pH 7.5 buffer. (A) In the presence of 2 μM (grey filled points), 5 μM (white filled points) and 10 μM (black filled points) of E. coli Trx and 7.6 nM of E. coli TrxR with ebselen at concentrations of zero (squares), 0.5 μM (triangles), 1 μM (rhombus), and 2 μM (rounds), the increase in A412 was measured against a blank. (B) In the presence of 2 μM (grey filled points), 5 μM (white filled points) and 10 μM (black filled points) of E. coli Trx and 10 nM of E. coli TrxR, with ebselen diselenide at concentrations of zero (squares), 1 μM (triangles) and 2 μM (rounds), the increase in A412 was measured against a blank.

[3] = molecular target: E. coli Trx-(SH)2 (Escherichia coli (strain K12), UniProt P0AA25); conditions: fluorescence spectroscopy; cited from earlier work

## O=c1c2ccccc2[se]n1-c1ccccc1 [EbSe 6, 2-phenyl-1,2-benzisoselenazol-3(2H)-one]
[1]; strain MR G162, ebselen 0.78 μg/ml
  Sensitivity to ebselen: R
[1]; strain MR G162, ebselen 1.56 μg/ml
  Sensitivity to ebselen: R
[1]; strain MR G162, ebselen 3.125 μg/ml
  Sensitivity to ebselen: R
[1]; strain MR G162, ebselen 6.25 μg/ml
  Sensitivity to ebselen: R
[1]; strain MR G162, ebselen 25 μg/ml
  Sensitivity to ebselen: S
[1]; strain MR G162, ebselen 50 μg/ml
  Sensitivity to ebselen: S
[1]; strain MR G162, ebselen 100 μg/ml
  Sensitivity to ebselen: S
[1]; strain MR G193, ebselen 0.78 μg/ml
  Sensitivity to ebselen: R
[1]; strain MR G193, ebselen 1.56 μg/ml
  Sensitivity to ebselen: R
[1]; strain MR G193, ebselen 3.125 μg/ml
  Sensitivity to ebselen: R
[1]; strain MR G193, ebselen 6.25 μg/ml
  Sensitivity to ebselen: R
[1]; strain MR G193, ebselen 25 μg/ml
  Sensitivity to ebselen: S
[1]; strain MR G193, ebselen 50 μg/ml
  Sensitivity to ebselen: S
[1]; strain MR G193, ebselen 100 μg/ml
  Sensitivity to ebselen: S
[1]; strain MS G6, ebselen 0.78 μg/ml
  Sensitivity to ebselen: R
[1]; strain MS G6, ebselen 1.56 μg/ml
  Sensitivity to ebselen: R
[1]; strain MS G6, ebselen 3.125 μg/ml
  Sensitivity to ebselen: S
[1]; strain MS G6, ebselen 6.25 μg/ml
  Sensitivity to ebselen: S
[1]; strain MS G6, ebselen 25 μg/ml
  Sensitivity to ebselen: S
[1]; strain MS G6, ebselen 50 μg/ml
  Sensitivity to ebselen: S
[1]; strain MS G6, ebselen 100 μg/ml
  Sensitivity to ebselen: S
[1]; strain MS G142, ebselen 0.78 μg/ml
  Sensitivity to ebselen: R
[1]; strain MS G142, ebselen 1.56 μg/ml
  Sensitivity to ebselen: R
[1]; strain MS G142, ebselen 3.125 μg/ml
  Sensitivity to ebselen: R
[1]; strain MS G142, ebselen 6.25 μg/ml
  Sensitivity to ebselen: S
[1]; strain MS G142, ebselen 25 μg/ml
  Sensitivity to ebselen: S
[1]; strain MS G142, ebselen 50 μg/ml
  Sensitivity to ebselen: S
[1]; strain MS G142, ebselen 100 μg/ml
  Sensitivity to ebselen: S
[1]; two macrolide sensitive strains, listed as ebselen
  minimal bactericidal concentration (MBC): 6.25 µg/mL (≈ 22.8 µM)
[2]
  inhibition of E. coli TrxR (in words): strongly inhibited
[2]; Ki (competitive inhibitor of Trx reduction by E. coli TrxR), from Lineweaver-Burk slopes
  Ki: 150 nM
[3]
  second-order rate constant of reaction with reduced E. coli Trx: 2e+07 M⁻¹ s⁻¹
